# Results as given in patent publication US11807693B2 (priority 2014, dated 2023).
# Starred links: 1 amine or outer side, 2 acyl side, 3 side chain; linkers in the order of their positions; H or OH if unused. Non-standard residues stand in square brackets, D forms with d. Residues, ends and D or L forms follow the SMILES beside them. *: point of attachment. dBip = N[C@H](Cc1ccc(-c2ccccc2)cc1)C(=O)O; Oic = O=C(O)[C@@H]1C[C@@H]2CCCC[C@@H]2N1; Phe(4-I) = N[C@@H](Cc1ccc(I)cc1)C(=O)O; γGlu = O=C(O)[C@H](CCC(=O)[*:2])N[*:1]; NMeR = CN[C@@H](CCCNC(=N)N)C(=O)O; Tridecanoyl = CCCCCCCCCCCCC(=O)*; hArg = N=C(N)NCCCC[C@H](N)C(=O)O; β3hF = N[C@H](CC(=O)O)Cc1ccccc1; Cha = N[C@@H](CC1CCCCC1)C(=O)O; NMeL = CN[C@@H](CC(C)C)C(=O)O; Nle = CCCC[C@H](N)C(=O)O; 3TP = not defined here; AEEA = NCCOCCOCC(=O)O
# Test: In vivo pharmacokinetics in rat
# Set-up: species or system Sprague-Dawley rats
# Conditions: 20 kDa PEGylated peptides, FIG. 9, 1/10th the dose of the others
# Method: Evaluation of the in vivo pharmacokinetic profile of several pegylated and lipidated apelin polypeptides in rat was undertaken (FIGS. 9 and 10A-B). The apelin polypeptides were administered to Sprague-Dawley rats through subcutaneous (SC) administration and the pharmacokinetic profile for each polypeptide was subsequently evaluated. […] Blood samples collected over a 24 hr period were transferred into collection tubes containing potassium EDTA and stored on ice until processed. Plasma was obtained from blood by centrifugation. After transfer into a 96-well container, plasma samples were stored in a freezer maintained at approximately −80° C. Quantitative analysis of the apelin polypeptide in rat plasma samples was achieved using multiple reaction monitor (MRM) mode on a LC-MS/MS system.
row,Molecule,plasma concentration in rat
1,{H2}[3TP](20K-mPEGReg)[hArg]rQ[hArg]Pr[NMeLeu]SHKG[Oic][pI-Phe]P[D-Bip]{COOH} ({20K‑mPEGReg-3TP}-[hArg][dR]Q[hArg]P[dR][NMeL]SHKG[Oic][Phe(4-I)]P[dBip]-OH; reading uncertain) [SEQ ID NO: 103],high plasma concentrations

# Same assay, conditions: rat, in vivo, sc, 0.1 mg/kg
Molecule,AUC(0-inf),half-life
CCCCCCCCCCCCC(=O)N[C@@H](CCC(=O)NCCOCCOCC(=O)NCCOCCOCC(=O)N[C@@H](CCC(N)=O)C(=O)N[C@@H](CCCNC(=N)N)C(=O)N1CCC[C@H]1C(=O)N(C)[C@@H](CCCNC(=N)N)C(=O)N[C@@H](CC1CCCCC1)C(=O)N[C@@H](CO)C(=O)N[C@@H](Cc1c[nH]cn1)C(=O)N[C@@H](CCCCN)C(=O)NCC(=O)N1[C@H](C(=O)N[C@@H](CCCC)C(=O)N2CCC[C@H]2C(=O)N[C@H](CC(=O)O)Cc2ccccc2)C[C@@H]2CCCC[C@@H]21)C(=O)O [Peptide 379] ({Tridecanoyl-γGlu-AEEA-AEEA}-QRP[NMeR][Cha]SHKG[Oic][Nle]P[β3hF]-OH),0.145 µM·h,15.7 min

# Test: rat plasma
# Conditions: 37° C., up to 4 hr
row,Molecule,not cleaved
1,{Palm} [AC4Abu] [Aeea] [Aeea] q R P [NMeArg] [Cha] S H K G [Pip] [Nle] [Nip] [4-Cl-F] {COOH},>90.0 % remaining at 4 hours
2,{Palm} [AC4Abu] [Aeea] [Aeea] q R P [NMeArg] [Cha] S H K G [Oic] [Nle] [Inp] [4-Cl-F] {COOH},>90.0 % remaining at 4 hours
3,{Palm} [AC4Abu] [Aeea] [Aeea] q R P [NMeArg] [Cha] S H K G [Oic] [Nle] [Aib] [D-BhPhe] {COOH},>90.0 % remaining at 4 hours
4,{Palm} [AC4Abu] [Aeea] [Aeea] q R P [NMeArg] [Cha] S H K G [Oic] [Nle] [BhPro] [D-BhPhe] {COOH},>90.0 % remaining at 4 hours
5,{Palm} [AC4Abu] [Aeea] [Aeea] q R P [NMeArg] [Cha] S H K G [Oic] [Nle] [aMePro] [D-BhPhe] {COOH},>90.0 % remaining at 4 hours
6,{Palm} [AC4Abu] [Aeea] [Aeea] q [hArg] P r [Cha] S H K G [Oic] [Nle] P [D-BhPhe] {COOH},90 % remaining at 4 hours
7,{hexanoyl} [AC4Abu] [Aeea] [Aeea] Q R P [NMeArg] [Cha] S H K G [Oic] [Nle] [Aib] [4-Cl-F] {COOH},>90.0 % remaining at 4 hours

# More lines, now with the values ahead:
row,not cleaved,Molecule
1,>90.0 % remaining at 4 hours,{Acetyl-NH} E r Q [hArg] P r [NMeLeu] S H K G [Oic] [pI-Phe] P [D-Bip] {COOH}
2,>90.0 % remaining at 4 hours,{PDA}[AC4Abu][Aeea][Aeea][hArg]rQ[hArg]Pr[NMeLeu]SHKG[Oic][pI-Phe]P[D-Bip]{COOH}
3,>90.0 % remaining at 4 hours,{TDA}[AC4Abu][Aeea][Aeea][hArg]rQ[hArg]Pr[NMeLeu]SHKG[Oic][pI-Phe]P[D-Bip]{COOH}
4,>90.0 % remaining at 4 hours,{Acetyl-NH} [hArg] r Q [hArg] P E [NMeLeu] S H K G [Oic] [pI-Phe] P [D-Bip] {COOH}
5,>90.0 % remaining at 4 hours,{Acetyl-NH} [hArg] E Q [hArg] P r [NMeLeu] S H K G [Oic] [pI-Phe] P [D-Bip] {COOH}
